Test results as given in PubChem BioAssay (NCI).
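In this assay, cells in 96-well plates receive the compound at five concentrations for 48 hours. Endpoints are linearly interpolated between the surrounding concentrations. Definition used: TGI = concentration required for complete inhibition of growth.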

Columns and labels:
Test in all cases: NCI tumour cell line growth inhibition, 48 h
[1] = tested on: M14 melanoma
[2] = tested on: A498 renal
[3] = tested on: COLO 205 colon
[4] = tested on: RPMI-8226 leukemia
[5] = tested on: KM12 colon
[6] = tested on: OVCAR-5 ovarian
[7] = tested on: UO-31 renal
[8] = tested on: U251 CNS
[9] = tested on: UACC-62 melanoma
[10] = tested on: NCI/ADR-RES ovarian

O=C(OCC(OC(=O)c1ccccc1)C1CC(C2(O)CCCCC2)C(=O)O1)c1ccccc1 (stereo not given)
TGI [1]: > 25 µM | TGI [2]: > 25 µM | TGI [3]: > 25 µM | TGI [4]: > 25 µM | TGI [5]: > 25 µM | TGI [6]: > 25 µM | TGI [7]: 3.88 µM | TGI [8]: > 25 µM | TGI [9]: 2.21 µM | TGI [10]: > 25 µM

C=C1CC[C@@H]2[C@](C)(COC(=O)CCC(=O)O)CCC[C@@]2(C)[C@@H]1CCC1=CC(=O)OC1
TGI [1]: > 100 µM | TGI [2]: > 100 µM | TGI [3]: > 100 µM | TGI [4]: > 100 µM | TGI [5]: > 100 µM | TGI [6]: > 100 µM | TGI [7]: > 100 µM | TGI [8]: > 100 µM | TGI [9]: > 100 µM | TGI [10]: > 100 µM

CCN(CC)CCSc1c(C(C)=O)c(=O)n(-c2ccccc2)c(=S)n1-c1ccccc1
TGI [1]: 4.12 µM | TGI [2]: 40.6 µM | TGI [3]: 3.92 µM | TGI [4]: 8.52 µM | TGI [5]: 35 µM | TGI [6]: 53.2 µM | TGI [7]: 3.86 µM | TGI [8]: 33.1 µM | TGI [9]: 27.7 µM | TGI [10]: 63.4 µM

C[C@@H]1CC[C@@]2(C)[C@H](C)/C(=C\COC(=O)/C=C/c3ccc(O)c(O)c3)CC[C@@]12C
TGI [1]: 26.1 µM | TGI [2]: 25.8 µM | TGI [3]: 13.4 µM | TGI [4]: 10.2 µM | TGI [5]: 15.9 µM | TGI [6]: 35 µM | TGI [7]: 28 µM | TGI [8]: 17.8 µM | TGI [9]: 22.1 µM | TGI [10]: 23.5 µM

COc1ccc(CNc2nc3cc(C(F)(F)F)ccc3nc2C(=O)O)cc1
TGI [1]: 58.1 µM | TGI [2]: 53 µM | TGI [3]: 39.7 µM | TGI [4]: > 100 µM | TGI [5]: 63.6 µM | TGI [6]: 94.7 µM | TGI [7]: 42.5 µM | TGI [8]: > 100 µM | TGI [9]: 49.8 µM | TGI [10]: 58.1 µM

CCCCCCCCCCCCc1ccsc1-c1ccc(-c2ccc(-c3sccc3CCCCCCCCCCCC)s2)s1
TGI [1]: > 100 µM | TGI [2]: > 100 µM | TGI [3]: > 100 µM | TGI [4]: > 100 µM | TGI [5]: > 100 µM | TGI [6]: > 100 µM | TGI [7]: > 100 µM | TGI [8]: > 100 µM | TGI [9]: > 100 µM | TGI [10]: > 100 µM

CCCCCCCCCCCCCCCC(=O)OC1C(O)C(O)C(O)C(O)C12CO2 (stereo not given)
TGI [1]: > 100 µM | TGI [2]: > 100 µM | TGI [3]: > 100 µM | TGI [4]: > 100 µM | TGI [5]: > 100 µM | TGI [6]: > 100 µM | TGI [7]: > 100 µM | TGI [8]: 39.2 µM | TGI [9]: > 100 µM | TGI [10]: > 100 µM
